Data taken from patent publication US5705531A, “1,5-disubstituted 7A-methylperhydroinden-3A-ol derivatives, useful in treating cardiovascular disorders, processes for their preparation and pharmaceutical compositions containing the same” (Sigma-Tau Industrie Farmaceutiche Riunite S.p.A., priority 1994, dated 1998).
pIC50: −log10 of the molar value. Where a name gives a salt, the structure may show the parent alone.

How the values were obtained:
[1] = tested on: spontaneous hypertensive rats (MHS); test: effect of 5 week-treatment on the development of hypertension; SBP and HR by tail cuff method; assay type: in vivo, rat (MHS); conditions: 20 mg/Kg/os daily in Methocel 0.5%, 5 weeks; for SBP: n=7, controls 172 +/- 5,0; for HR: n=7, controls 380 +/- 6,3
Experimental: Systolic blood pressure (SBP) and heart rate (HR) were measured, by the tail cuff method, in young prehypertensive male rats (MHS or SHR) strains before the development of hypertension (4 weeks of age) for recording the basal values of SBP. Groups of 7 rats were formed and subdivided in control and treated groups. The compound, suspended in Methocel 0.5% (w/v), was orally given daily for at least 5 weeks to the treated groups. The control group received only Methocel.
SBP and HR were measured weekly 6 and 24 hrs after treatment. After 5 weeks of treatment, when hypertension was fully developed in the control group (9 weeks of age), washout was started for at least one week, to verify whether the treatment maintained blood pressure low or reestablished the basal values.

[2] = molecular target: T1, Na^+,K^+ -ATPase (Homo sapiens, UniProt P05023); test: displacement of the specific 3H-ouabain binding from the purified Na+,K+-ATPase receptor; conditions: for IC50: 3H-ouabain, purified Na+,K+-ATPase, read-out: Binding 3H-Ouab. Displacement log IC50 (converted)
T1 construct: Na^+,K^+ -ATPase receptor purified according to Jorghensen; from tissue
Text: (§1) To test the affinity for the receptor site of the Na^+,K^+ -ATPase and the agonist or antagonist activity on the enzyme, the following tests were used:
a) displacement of the specific ^3 H-ouabain binding from the Na^+,K^+ -ATPase receptor purified according to Jorghensen (Jorghensen P., BBA, 1974, 356, 36) and Erdmann (Erdmann E. et al., Arzneim. Forsh., 1984, 34, 1314);

[3] = molecular target: T1, Na^+,K^+ -ATPase; test: inhibition of the activity of the purified Na+,K+-ATPase (% hydrolysis of 32P-ATP); assay type: biochemical; conditions: for IC50: 32P-ATP hydrolysis, purified Na+,K+-ATPase, read-out: Inhibitory Activity log IC50 (converted)
Text: as §1
b) inhibition of the activity of the purified Na^+,K^+ -ATPase measured as % of hydrolysis of ^32 P-ATP in presence and in absence of the tested compound (Doucet A. et al., Am. J. Physiol., 1986, 251, F851)

SMILES	SBP [1]	HR [1]	IC50 [2] [µM]	IC50 [3] [µM]	pIC50 [2]	pIC50 [3]
CN(C)CCO/N=C/[C@H]1CC[C@]2(O)C[C@@H](c3ccccc3)CC[C@]12C [I-ap, (1S,3aS,5S,7aR)-1-[(E)-2-Dimethylaminoethoxyimino]methyl-5-phenyl-7a-methylperhydroinden-3a-ol]	155 +/- 4,3 mm Hg	370 +/- 10,5 bEATS/min.	2	39.8		
CN(C)CCO/N=C/[C@H]1CC[C@]2(O)C[C@@H](c3cccc(O)c3)CC[C@]12C [I-au, (1S,3aS,5S,7aR)-1-[(E)-2-Dimethylaminoethoxyimino]methyl-5-(3-hydroxyphenyl)-7a-methylperhydroinden-3a-ol]			6.31	50.1		
CN(C)CCO/N=C/[C@H]1CC[C@]2(O)C[C@@H](c3ccc(O)cc3)CC[C@]12C [I-ax, (1S,3aS,5S,7aR)-1-[(E)-2-Dimethylaminoethoxyimino]methyl-5-(4-hydroxyphenyl)-7a-methylperhydroinden-3a-ol]	156 +/- 4,6 mm Hg	383 +/- 11,4 bEATS/min.	1.58	39.8		
C[C@]12CC[C@H](c3ccc(CO)cc3)C[C@@]1(O)CC[C@@H]2/C=N/OCCN [I-bb, (1S,3aS,5S,7aR)-1-[(E)-2-Aminoethoxyimino]methyl-5-(4-hydroxymethylphenyl)-7a-methylperhydroinden-3a-ol]			1.58	25.1		
CN(C)CCO/N=C/[C@H]1CC[C@]2(O)C[C@@H](c3ccc(CO)cc3)CC[C@]12C [I-bc, (1S,3aS,5S,7aR)-1-[(E)-2-Dimethylaminoethoxyimino]methyl-5-(4-hydroxymethylphenyl)-7a-methylperhydroinden-3a-ol]	160 +/- 7,8 mm Hg	377 +/- 10,5 bEATS/min.	5.01	50.1		
Cc1ccc([C@H]2CC[C@]3(C)[C@@H](/C=N/OCCN)CC[C@]3(O)C2)cc1 [I-bg, (1S,3aS,5S,7aR)-1-[(E)-2-Aminoethoxyimino]methyl-5-(4-methylphenyl)-7a-methylperhydroinden-3a-ol oxalate]					5.40	4.50
Cc1ccc([C@H]2CC[C@]3(C)[C@@H](/C=N/OCCN(C)C)CC[C@]3(O)C2)cc1 [I-bh, (1S,3aS,5S,7aR)-1-[(E)-2-Dimethylaminoethoxyimino]methyl-5-(4-methylphenyl)-7a-methylperhydroinden-3a-ol]			6.31	50.1		
CN(C)CCO/N=C/[C@H]1CC[C@]2(O)C/C(=C\CCO)CC[C@]12C [I-bx, (1S,3aS,7aR)-1-[(E)-2-Dimethylaminoethoxyimino]methyl-5-[(Z)-3-hydroxypropyliden]-7a-methylperhydroinden-3a-ol]			12.6	63.1		
CN(C)CCO/N=C/[C@H]1CC[C@]2(O)C/C(=C/CCO)CC[C@]12C [I-by, (1S,3aS,7aR)-1-[(E)-2-Dimethylaminoethoxyimino]methyl-5-[(E)-3-hydroxypropyliden]-7a-methylperhydroinden-3a-ol]			20	63.1		
CN(C)CCONC[C@H]1CC[C@]2(O)C[C@@H](c3ccccc3)CC[C@]12C [I-df, (1S,3aS,5S,7aR)-1-(2-Dimethylaminoethoxyamino)methyl-5-phenyl-7a-methylperhydroinden-3a-ol oxalate]					5.20	4.30
CN(C)CCONC[C@H]1CC[C@]2(O)C[C@@H](c3cccc(O)c3)CC[C@]12C [I-di, (1S,3aS,5S,7aR)-1-(2-Dimethylaminoethoxyamino)methyl-5-(3-hydroxyphenyl)-7a-methylperhydroinden-3a-ol oxalate]					5.10	4.30
